Common to all, as to type: cell-based, human
Series [1] relates to 5 HMCLs with the highest HA Score. In words: Growth assay for myeloma cells (Cell Titer Glo, intracellular ATP), HMCLs with high HA Score. The conditions noted are these: 4 days culture, read-out: median IC50. On the procedure: (§1) Data are mean values plus or minus standard deviation (SD) of 5 experiments determined on sextuplet culture wells.
(§2) HMCLs were cultured for 4 days in 96-well flat-bottom microtiter plates in RPMI 1640 medium, 10% FCS, 2 ng/ml IL-6 culture medium (control), with graded Panobinostat (A), VPA […] or SAHA (C) concentrations. Data are mean values plus or minus standard deviation (SD) of 5 experiments determined on sextuplet culture wells.
(§3) Cell growth was evaluated by quantifying intracellular ATP amount with a Cell Titer Glo Luminescent Assay (Promega, Madison, Wis.) with a Centro LB 960 luminometer (Berthold Technologies, Bad Wildbad, Germany).
(§4) The inventors sought to determine whether HA Score could predict for the sensitivity of 10 HMCLs to HDAC inhibitor.
(§5) The inventors sought to determine whether HA Score could predict for the sensitivity of myeloma cells to clinical grade HDAC inhibitors {Neri, 2012 #3317}.

The test system of series [2] is 5 HMCLs with low HA Score. Description: Growth assay for myeloma cells (Cell Titer Glo, intracellular ATP), HMCLs with low HA Score. The settings on record: 4 days culture, read-out: median IC50. Here is the method: as §1, §2, §3, §4, §5
Background: ATP-based viability assays read luminescence as a measure of living cells.

In another series the test system is Five HMCLs. Description: Cell viability of the five TSA treated HMCLs (summary statement). The conditions noted are these: 0.33 μM TSA for 24 h. On the procedure: (§6) The human MM cell lines XG-5, XG-6, XG-7, XG-20 and LP1 were grown in RPMI 1640 supplemented with 10% fetal bovine serum and 2 ng/mL recombinant IL-6. […] Control cells were cultured in the same conditions without TSA.
The prognostic information of HDACi regulated genes was gathered within an histone acetylation score (HA Score), which was the sum of the beta coefficients of the Cox model weighted by ±1 according to the patient MMC signal above or below the probe set maxstat value as described (34).

The subject of the next series is XG-5. Description: Cell viability by trypan blue exclusion. The settings on record: 0.33 μM TSA, 24 h (Day 1), mean ± SD, 3 experiments. Here is the method: as §6
The subject of a further series is XG-7. Description: Cell viability by trypan blue exclusion. The settings on record: 0.33 μM TSA, 24 h (Day 1), mean ± SD, 3 experiments. On the procedure: as §6
A further series relates to LP1. Description: Cell viability by trypan blue exclusion. The settings on record: 0.33 μM TSA, 24 h (Day 1), mean ± SD, 3 experiments. On the procedure:
as §6

In the next series the test system is XG-6. Description: Cell viability by trypan blue exclusion. The conditions noted are these: 0.33 μM TSA, 24 h (Day 1), mean ± SD, 3 experiments. Here is the method: as §6
The subject of the next series is XG-20. Description: Cell viability by trypan blue exclusion. The conditions noted are these: 0.33 μM TSA, 24 h (Day 1), mean ± SD, 3 experiments. On the procedure: as §6
For series [3], the system named is primary MMCs of patients with low HA Score. In words: Mononuclear cell culture, CD138+ viable plasma cell count, patients with low HA Score. The conditions noted are these: day 4; for Myeloma cell number/culture well: individual patients with low HA Score; for Myeloma cell number/culture well, Mean: mean of 5 patients with low HA Score. Here is the method:
(§7) At day 4 of culture, the cell count and the viability were determined and the percentage of CD138^+ viable plasma cells was determined by flow cytometry. Black color represents patients with high HA Score (N=8) and white represents patients with low HA Score values (N=5).
(§8) In each culture group, viability and cell counts were assayed and MMCs were stained with an anti-CD138-PE mAb (Immunotech, Marseille, France) as previously described (35).
(§9) The characteristics of patients with MM included in this study are described in Table 3.

Series [4] deals with primary MMCs of patients with high HA Score. In words: Mononuclear cell culture, CD138+ viable plasma cell count, patients with high HA Score. The conditions noted are these: day 4; for Myeloma cell number/culture well: individual patients with high HA Score; for Myeloma cell number/culture well, Mean: mean of 8 patients with high HA Score. On the procedure:
as §7, §8, §9

Where [5] appears, read: Homo sapiens, 96 h, IL-6 2 ng/ml.

One may read the IC50 as the concentration that gives 50% inhibition.

Several values for one entry are separate records, joined by “and”; a condition that tells them apart may be missing. Identical values can stand only once. Like-named read-outs stand apart in the source and are kept apart here.

In the case of `CCCC(CCC)C(=O)O` [VPA, valproic acid], the IC50 in series [1] (Homo sapiens, 96 h) came to 280 nM; in series [2] (Homo sapiens, 96 h), 430 nM.
Turning to `CC(/C=C/C(=O)NO)=C\[C@@H](C)C(=O)c1ccc(N(C)C)cc1` [TSA, trichostatin A], the “effect on myeloma cell viability” value in the series on Five HMCLs was “did not affect myeloma cell viability”. The IC50 in [1] (IL-6 2 ng/ml) was 11 nM; in [2] (IL-6 2 ng/ml), 52.3 nM. The “Cell viability (%)” value was 70 ± 3% in the series on XG-5; 100 ± 0% in the series with XG-7; 100 ± 0% with LP1; 100 ± 1% in the series with XG-6; 100 ± 1% in the series with XG-20. In addition, the “Myeloma cell number/culture well” value in series [3] (5.1 nM TSA) is 72200 and 60648 and 14750 and 306768 and 19100; in series [3] (10.3 nM TSA), 64998 and 62172 and 18486 and 254478 and 19458; in series [3] (20.7 nM TSA) it was 54912 and 41184 and 14328 and 243978 and 18168; in series [3] (41.3 nM TSA) it was 33350 and 26100 and 12765 and 235040 and 18876; in series [4] (5.1 nM TSA), 43320 and 115520 and 72200 and 83752 and 19950 and 37544 and 48249 and 78844; in series [4] (10.3 nM TSA), 31086 and 45216 and 50868 and 25434 and 12170 and 33912 and 38249 and 41860. In addition, the “Myeloma cell number/culture well” value was 22880 and 20592 (2×) and 38896 and 7650 and 18304 and 29064 and 32752 in [4] (20.7 nM TSA); 7250 (2×) and 29000 and 18850 and 11600 and 1736 and 5238 and 29790 in series [4] (41.3 nM TSA). Also, the “Myeloma cell number/culture well, Mean” value in [3] (5.1 nM TSA) is 94693; in series [3] (10.3 nM TSA), 83918; in series [3] (20.7 nM TSA) it was 74514; in series [3] (41.3 nM TSA), 65226; in series [4] (5.1 nM TSA), 62422; in [4] (10.3 nM TSA) it was 34849. Moreover, the entries for the “Myeloma cell number/culture well, Mean” value in series [4] (20.7 nM TSA) and in [4] (41.3 nM TSA) were 23841 and 13839, respectively.
`Cc1[nH]c2ccccc2c1CCNCc1ccc(/C=C/C(=O)NO)cc1` [Panobinostat, panobinostat]: the results for the 50% inhibitory concentration (IC50) in [1] (setting [5]) and in series [2] (setting [5]) were 1.16 nM and 3.16 nM, respectively.

The values above are taken from patent US10174380B2, “Methods for predicting multiple myeloma treatment response” (INSERM (INSTITUT NATIONAL DE LA SANTE ET DE LA RECHERCHE …, priority 2012, dated 2019).
